Measured values from patent US20240376097A1, “BCL-2 Inhibitor” (BeiGene Ltd., priority 2020, published 2024).

Columns and labels:
[1] = target: recombinant human Bcl-2-G101V protein (Homo sapiens (Human), UniProt P10415, G101V); experiment: Bcl-2-G101V TR-FRET Assay; type: binding; conditions: Bcl-2 G101V mutant, TR-FRET; read-out: Biochemical assay (IC50, nM) Bcl-2 G101V
Outline: (§1)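 Measures how compounds block Bcl-2-G101V engaging its ligand, by TR-FRET with 337 nm excitation and a 490/520 nm emission ratio; dose-response data give IC50 via a four-parameter logistic model.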

[2] = system: recombinant human Bcl-2-G101V protein; experiment: Bcl-2-G101V TR-FRET Assay; type: binding; conditions: for Ratio of Bcl-2 G101V/WT: ratio of biochemical IC50 Bcl-2 G101V / Bcl-2 WT
Outline: as §1

[3] = system: RS4;11 (BCL-2 dependent acute lymphoblastic leukemia cell line); experiment: RS4;11 Cell Proliferation Assay; type: cell-based; conditions: Homo sapiens, RS4;11 cells, read-out: Cellular proliferation assay (IC50, nM) RS4
Outline: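 RS4;11 cells, 50,000 per well in RPMI-1640 with 10% FBS, treated 48 h at 37 °C with a 10-point dilution series topping at 1 μM. Viability read by CellTiter-Glo ATP luminescence; mean IC50 reported.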

[4] = Metabolic Stability Study, liver microsome incubation (human); type: in vitro ADME; conditions: human liver microsomes 0.5 mg/mL, 1 μM compound, NADPH; for half-life at 1 μM: NA^# = very stable, beyond the detection limits, read-out: T1/2 (min) Human; for microsomal CLint at 1 μM: read-out: CLint (μL × min^−1 × mg^−1) Human
Experimental: (§2) Biological Example: Metabolic Stability Study
(§3) The metabolic stability of some compounds was evaluated by using the liver microsome incubation system in vitro. Briefly, the test compounds at 1 μM, were incubated with 0.5 mg/mL liver microsomes from different species (human, dog, rat and mouse) with an NADPH regenerating system at 37° C. Samples were quenched at three time points (0, 30, 60 min) with organic solvent containing internal standards, and the supernatant was analyzed for parent loss via LC-MS/MS. Midazolam was used as the positive control to validate the incubation system.
(§4) where Cprotein is the microsomal protein concentration in the incubation system.
(§5) The value of CLint and T1/2 of Example F132b in WO2019210818 and representative compounds of the disclosure were determined, and the results are shown in Table 5.

[5] = Metabolic Stability Study, liver microsome incubation (mouse); type: in vitro ADME; conditions: mouse liver microsomes 0.5 mg/mL, 1 μM compound, NADPH; for half-life at 1 μM: NA^# = very stable, beyond the detection limits, read-out: T1/2 (min) mouse; for microsomal CLint at 1 μM: read-out: CLint (μL × min^−1 × mg^−1) mouse
Experimental: as §2, §3, §4, §5

SMILES	IC50 [1]	Ratio of Bcl-2 G101V/WT [2]	IC50 [3]	half-life at 1 μM [4]	microsomal CLint at 1 μM [4]	half-life at 1 μM [5]	microsomal CLint at 1 μM [5]	ratio of IC50 of Bcl-2 G101V/Bcl-2 wt, compared with Example F132b in WO2019210828 and ABT-199 (venetoclax) ([2]; comparison in words)
CC(C)c1ccccc1C1CN(Cc2cccc(F)c2)CCN1C1CC2(CCN(c3ccc(C(=O)NS(=O)(=O)c4ccc(NC[C@H]5CC[C@](C)(O)CC5)c([N+](=O)[O-])c4)c(Oc4cnc5[nH]ccc5c4)c3)CC2)C1 (stereo partly drawn) [Example 43, 2-((1H-pyrrolo[2,3-b]pyridin-5-yl)oxy)-4-(2-(4-(3-fluorobenzyl)-2-(2-isopropylphenyl)piperazin-1-yl)-7-azaspiro[3.5]nonan-7-yl)-N-((4-((((1r,4r)-4-hydroxy-4-methylcyclohexyl)methyl)amino)-3-nitrophenyl)sulfonyl)benzamide]	1.3 nM	4.2	0.48 nM	108 min	12.8 µL/min/mg	193 min	7.1 µL/min/mg	
[2H]C([2H])([2H])Oc1ccc(CN2CCN(C3CC4(CCN(c5ccc(C(=O)NS(=O)(=O)c6ccc(NC[C@H]7CC[C@](C)(O)CC7)c([N+](=O)[O-])c6)c(Oc6cnc7[nH]cc(F)c7c6)c5)CC4)C3)[C@H](c3ccccc3C(C)C)C2)cc1OC([2H])([2H])[2H] [Example 198, 4-(2-((R)-4-(3,4-bis(methoxy-d3)benzyl)-2-(2-isopropylphenyl)piperazin-1-yl)-7-azaspiro[3.5]nonan-7-yl)-2-((3-fluoro-1H-pyrrolo[2,3-b]pyridin-5-yl)oxy)-N-((4-((((1r,4r)-4-hydroxy-4-methylcyclohexyl)methyl)amino)-3-nitrophenyl)sulfonyl)benzamide]	0.17 nM	2.4	0.12 nM	247 min	5.6 µL/min/mg	222 min	6.3 µL/min/mg	
CC(C)c1ccccc1C1CN(Cc2ccc(Cl)cc2)CCN1C1CC2(CCN(c3ccc(C(=O)NS(=O)(=O)c4ccc(NC[C@H]5CC[C@](C)(O)CC5)c([N+](=O)[O-])c4)c(Oc4cnc5[nH]ccc5c4)c3)CC2)C1 (stereo partly drawn) [Example 29, 2-((1H-pyrrolo[2,3-b]pyridin-5-yl)oxy)-4-(2-(4-(4-chlorobenzyl)-2-(2-isopropylphenyl)piperazin-1-yl)-7-azaspiro[3.5]nonan-7-yl)-N-((4-((((1r,4r)-4-hydroxy-4-methylcyclohexyl)methyl)amino)-3-nitrophenyl)sulfonyl)benzamide]	1.5 nM	5.2	0.43 nM	245 min	5.6 µL/min/mg	2360 min	0.6 µL/min/mg	
COc1ccc(CN2CCN(C3CC4(CCN(c5ccc(C(=O)NS(=O)(=O)c6ccc(NC[C@H]7CC[C@](C)(O)CC7)c([N+](=O)[O-])c6)c(Oc6cnc7[nH]ccc7c6)c5)CC4)C3)C(c3ccccc3C(C)C)C2)c(OC)c1 (stereo partly drawn) [Example 48]	0.33 nM	4.6	0.43 nM	256 min	5.4 µL/min/mg	323 min	4.3 µL/min/mg	
COc1cc(CN2CCN(C3CC4(C3)CN(c3ccc(C(=O)NS(=O)(=O)c5ccc(NC[C@H]6CC[C@](C)(O)CC6)c([N+](=O)[O-])c5)c(Oc5cnc6[nH]cc(F)c6c5)c3)C4)[C@H](c3ccccc3C(C)C)C2)ccc1N1CCOCC1 [Example 361, 2-((3-fluoro-1H-pyrrolo[2,3-b]pyridin-5-yl)oxy)-N-((4-((((1r,4r)-4-hydroxy-4-methylcyclohexyl)methyl)amino)-3-nitrophenyl)sulfonyl)-4-(6-((R)-2-(2-isopropylphenyl)-4-(3-methoxy-4-morpholinobenzyl)piperazin-1-yl)-2-azaspiro[3.3]heptan-2-yl) benzamide]	0.16 nM	3.1	0.09 nM		< 1 µL/min/mg	273 min	5.1 µL/min/mg	
CC(C)c1ccccc1C1CN(Cc2ccc(C(F)(F)F)cc2)CCN1C1CC2(CCN(c3ccc(C(=O)NS(=O)(=O)c4ccc(NC[C@H]5CC[C@](C)(O)CC5)c([N+](=O)[O-])c4)c(Oc4cnc5[nH]ccc5c4)c3)CC2)C1 (stereo partly drawn) [Example 41, 2-((1H-pyrrolo[2,3-b]pyridin-5-yl)oxy)-N-((4-((((1r,4r)-4-hydroxy-4-methylcyclohexyl)methyl)amino)-3-nitrophenyl)sulfonyl)-4-(2-(2-(2-isopropylphenyl)-4-(4-(trifluoromethyl)benzyl)piperazin-1-yl)-7-azaspiro[3.5]nonan-7-yl) benzamide]	3.8 nM	4.6	0.74 nM	997 min	1.4 µL/min/mg	683 min	2 µL/min/mg	
CC(C)c1ccccc1[C@@H]1CN(Cc2cccc3c2OCCO3)CCN1C1CC2(CCN(c3ccc(C(=O)NS(=O)(=O)c4ccc(NC[C@H]5CC[C@](C)(O)CC5)c([N+](=O)[O-])c4)c(Oc4cnc5[nH]ccc5c4)c3)CC2)C1 [Example 79a, 2-((1H-pyrrolo[2,3-b]pyridin-5-yl)oxy)-4-(2-(R-4-((2,3-dihydrobenzo [b][1,4]dioxin-5-yl)methyl)-2-(2-isopropylphenyl)piperazin-1-yl)-7-azaspiro[3.5]nonan-7-yl)-N-((4-((((1r,4r)-4-hydroxy-4-methylcyclohexyl)methyl)amino)-3-nitrophenyl)sulfonyl)benzamide]	0.25 nM	2.4	0.104 nM	253 min	5.5 µL/min/mg	124 min	11.2 µL/min/mg	
COc1ccc(CN2CCN(C3CC4(C3)CN(c3ccc(C(=O)NS(=O)(=O)c5ccc(NC[C@H]6CC[C@](C)(O)CC6)c([N+](=O)[O-])c5)c(Oc5cnc6[nH]ccc6c5)c3)C4)[C@H](c3ccccc3C(C)C)C2)cc1 [Example 147, 2-((1H-pyrrolo[2,3-b]pyridin-5-yl)oxy)-N-((4-((((1r,4r)-4-hydroxy-4-methylcyclohexyl)methyl)amino)-3-nitrophenyl)sulfonyl)-4-(6-((R)-2-(2-isopropylphenyl)-4-(4-methoxybenzyl)piperazin-1-yl)-2-azaspiro[3.3]heptan-2-yl) benzamide]	0.17 nM	3.1	0.14 nM		< 1 µL/min/mg	301 min	4.6 µL/min/mg	
COc1cc(CN2CCN(C3CC4(C3)CN(c3ccc(C(=O)NS(=O)(=O)c5ccc(NC[C@H]6CC[C@](C)(O)CC6)c([N+](=O)[O-])c5)c(Oc5cnc6[nH]cc(F)c6c5)c3)C4)[C@H](c3ccccc3C(C)C)C2)cc2c1OCCC2 [Example 312, 2-((3-fluoro-1H-pyrrolo[2,3-b]pyridin-5-yl)oxy)-N-((4-((((1r,4r)-4-hydroxy-4-methylcyclohexyl)methyl)amino)-3-nitrophenyl)sulfonyl)-4-(6-((R)-2-(2-isopropylphenyl)-4-((8-methoxychroman-6-yl)methyl)piperazin-1-yl)-2-azaspiro[3.3]heptan-2-yl)benzamide]	0.27 nM	2.9	0.27 nM	423 min	3.3 µL/min/mg	362 min	3.8 µL/min/mg	
COc1ccc(CN2CCN(C3CC4(C3)CN(c3ccc(C(=O)NS(=O)(=O)c5ccc(NC[C@H]6CC[C@](C)(O)CC6)c([N+](=O)[O-])c5)c(Oc5cnc6[nH]ccc6c5)c3)C4)[C@H](c3ccccc3C(C)C)C2)cc1OC [Example 145, 2-((1H-pyrrolo[2,3-b]pyridin-5-yl)oxy)-4-(6-((R)-4-(3,4-dimethoxybenzyl)-2-(2-isopropylphenyl)piperazin-1-yl)-2-azaspiro[3.3]heptan-2-yl)-N-((4-((((1r,4r)-4-hydroxy-4-methylcyclohexyl)methyl)amino)-3-nitrophenyl)sulfonyl)benzamide]	0.084 nM	3	0.104 nM	970 min	1.4 µL/min/mg	196 min	7.1 µL/min/mg	much lower
